In patent publication US20240083888A1, “SMALL MOLECULE INHIBITOR FOR CATHEPSIN C AND MEDICINAL USE THEREOF” (REISTONE BIOPHARMA COMPANY LIMITED, priority 2020, published 2024):
Where a name gives a salt, the structure may show the parent alone. Read-outs that look alike come from different tables or passages of the source.

Biological target: rhCatC (Homo sapiens (Human), UniProt P53634)
Assay: In vitro enzyme activity experiment of rhCatC (AMC fluorescence assay)
Assay type: biochemical
Method: The in vitro inhibitory effect of compounds and positive control on rhCatC enzyme activity was evaluated by AMC fluorescence assay. rhCatC can catalyze the reaction of substrate peptide H-Gly-Arg-AMC, and release AMC to generate fluorescence. […] The compound was diluted with DMSO to a 384-well echo plate at a concentration of 100× of the highest concentration at the beginning of the experiment. 0.2 μL of the diluted compound was pipetted to a black-bottomed 384-well reaction plate for later use. The negative control well was DMSO. • 2) Activation of rhCatC: RhCatC and rhCatL were added to the activation buffer to obtain a final concentration of rhCatC of 100 μg/mL and a final concentration of rhCatL of 20 μg/mL, and incubated at room temperature for 1 hour. • 3) Enzyme activity reaction: Activated rhCatC was diluted to 0.4 μg/mL with the reaction buffer. The solution was added to the black-bottom 384-well reaction plate ([…]). 10 μL of the buffer was added for the vehicle control group. The plate containing compounds in its wells was incubated at room temperature for 30 minutes.
The RLU data was read, the inhibition rate was calculated, and the IC50 value was calculated according to the fitting curve of concentration and inhibition rate.

[1] = rhCatC enzyme, substrate H-Gly-Arg-AMC, read-out: Biological activity IC50

Chain of rhCatC (P53634 25-134): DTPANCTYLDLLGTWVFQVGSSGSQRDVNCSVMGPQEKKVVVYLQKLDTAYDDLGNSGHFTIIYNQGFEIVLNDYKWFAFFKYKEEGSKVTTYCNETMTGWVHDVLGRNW
Chain of rhCatC (P53634 231-394): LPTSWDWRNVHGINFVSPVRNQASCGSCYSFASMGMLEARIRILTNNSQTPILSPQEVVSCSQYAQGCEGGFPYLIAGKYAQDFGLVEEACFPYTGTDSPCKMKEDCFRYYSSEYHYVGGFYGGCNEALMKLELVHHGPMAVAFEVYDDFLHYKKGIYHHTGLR
Chain of rhCatC (P53634 395-463): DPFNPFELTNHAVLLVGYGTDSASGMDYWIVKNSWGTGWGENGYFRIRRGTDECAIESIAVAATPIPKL

Question: How did the IC50 [1] turn out when `N#C[C@H](Cc1ccc2c(c1)OCCN(c1ccc(F)cc1)C2=O)NC(=O)C1(N)CCOCC1` [Compound 44, (S)-4-Amino-N-(1-cyano-2-(4-(4-fluorophenyl)-5-oxo-2,3,4,5-tetrahydrobenzo[f][1,4]oxazepin-8-yl)ethyl)tetrahydro-2H-pyran-4-carboxamide] was run?
Answer: 39 nM

Question: How did the IC50 [1] turn out when `N#C[C@H](Cc1ccc2c(c1)OCCN(c1ccc(F)cc1)C2)NC(=O)C1(N)CCOCC1` [Compound 53, (S)-4-Amino-N-(1-cyano-2-(4-(4-fluorophenyl)-2,3,4,5-tetrahydrobenzo[f][1,4]oxazepin-8-yl)ethyl)tetrahydro-2H-pyran-4-carboxamide] was run?
Answer: 196 nM

Question: With `N#CC(Cc1ccc2c(c1)COc1cc(F)ccc1-2)NC(=O)[C@@H]1CNCCCO1` (stereo partly drawn) [Compound 15, (2S)—N-(1-Cyano-2-(3-fluoro-6H-benzo[c]chromen-8-yl)ethyl)-1,4-oxazepane-2-carboxamide] as the compound, how does the IC50 [1] read?
Answer: 304 nM

Question: `N#CC(Cc1ccc2c(c1)CCOc1cc(F)ccc1-2)NC(=O)C1(N)CCOCC1` (centres unmarked) [Compound 39, 4-Amino-N-(1-cyano-2-(3-fluoro-6,7-dihydrodibenzo[b,d]oxepin-9-yl)ethyl)tetrahydro-2H-pyran-4-carboxamide] was tested. Which IC50 [1] did it give?
Answer: 46 nM

Question: Which IC50 [1] does the source give for `N#C[C@H](Cc1ccc2c(c1)C(=O)N(c1ccccc1)C2)NC(=O)C1(N)CCOCC1` [Compound 50, (S)-4-Amino-N-(1-cyano-2-(3-oxo-2-phenylisoindolin-5-yl)ethyl)tetrahydro-2H-pyran-4-carboxamide] here?
Answer: 19 nM

Question: With `CC1(C)Oc2cc(C[C@@H](C#N)NC(=O)[C@@H]3CNCCCO3)c(F)cc2-c2ccc(C#N)cc21` [Compound 27, (S)—N—((S)-1-Cyano-2-(8-cyano-2-fluoro-6,6-dimethyl-6H-benzo[c]chromen-3-yl)ethyl)-1,4-oxazepane-2-carboxamide] as the compound, how does the IC50 [1] read?
Answer: 23 nM

Question: `Cn1c(=O)oc2ccc(N3Cc4cc(C[C@@H](C#N)NC(=O)C5(N)CCOCC5)ccc4C3=O)cc21` [Compound 48, (S)-4-Amino-N-(1-cyano-2-(2-(3-methyl-2-oxo-2,3-dihydrobenzo[d]oxazol-5-yl)-1-oxoisoindolin-5-yl)ethyl)tetrahydro-2H-pyran-4-carboxamide] was tested. Which IC50 [1] did it give?
Answer: 29 nM

Question: With `N#C[C@H](Cc1cc2c(cc1F)-c1cc(C3COC3)c(F)cc1CO2)NC(=O)[C@@H]1CNCCCO1` [Compound 38A, (S)—N—((S)-1-Cyano-2-(2,8-difluoro-9-(oxetan-3-yl)-6H-benzo[c]chromen-3-yl)ethyl)-1,4-oxazepane-2-carboxamide] as the compound, how does the IC50 [1] read?
Answer: 1.3 nM

Question: `N#CC(Cc1ccc2c(c1)CCC2)NC(=O)[C@@H]1CNCCCO1` (stereo partly drawn) [Compound 5, (2S)—N-(1-Cyano-2-(2,3-dihydro-1H-inden-5-yl)ethyl)-1,4-oxazepane-2-carboxamide trifluoroacetate] was tested. Which IC50 [1] did it give?
Answer: 3590 nM

Question: How did the IC50 [1] turn out when `N#C[C@H](Cc1ccc2c(c1)CCN(c1ccccc1)C2=O)NC(=O)C1(N)CCOCC1` [Compound 49, (S)-4-Amino-N-(1-cyano-2-(1-oxo-2-phenyl-1,2,3,4-tetrahydroisoquinolin-6-yl)ethyl)tetrahydro-2H-pyran-4-carboxamide] was run?
Answer: 57 nM

Question: For `N#CC(Cc1ccc2c(c1)OCc1ccc(C3CCNC3)cc1-2)NC(=O)C1(N)CCOCC1` (centres unmarked) [Compound 34, 4-Amino-N-(1-cyano-2-(9-(pyrrolidin-3-yl)-6H-benzo[c]chromen-3-yl)ethyl)tetrahydro-2H-pyran-4-carboxamide], which IC50 [1] is on record?
Answer: 6.2 nM

Question: With `N#C[C@H](Cc1ccc2c(c1)CN(c1ccccc1)C2=O)NC(=O)[C@@H]1CNCCCO1` [Compound 2, (S)—N—((S)-1-Cyano-2-(1-oxo-2-phenylisoindolin-5-yl)ethyl)-1,4-oxazepane-2-carboxamide] as the compound, how does the IC50 [1] read?
Answer: 710 nM

Question: `N#CC(Cc1ccc2c(c1)CCC2)NC(=O)C1(N)CCOCC1` (centres unmarked) [Compound 6, 4-Amino-N-(1-cyano-2-(2,3-dihydro-1H-inden-5-yl)ethyl)tetrahydro-2H-pyran-4-carboxamide] was tested. Which IC50 [1] did it give?
Answer: 56 nM

Question: Which IC50 [1] does the source give for `N#C[C@H](Cc1ccc2c(c1)CCN(c1ccc(F)cc1)C2)NC(=O)C1(N)CCOCC1` [Compound 57, (S)-4-Amino-N-(1-cyano-2-(2-(4-fluorophenyl)-1,2,3,4-tetrahydroisoquinolin-6-yl)ethyl)tetrahydro-2H-pyran-4-carboxamide] here?
Answer: 48 nM

Question: With `N#C[C@@H](Cc1cc2c(cc1F)-c1cc(C3COC3)c(F)cc1CO2)NC(=O)[C@@H]1CNCCCO1` [Compound 38B, (S)—N—((R)-1-Cyano-2-(2,8-difluoro-9-(oxetan-3-yl)-6H-benzo[c]chromen-3-yl)ethyl)-1,4-oxazepane-2-carboxamide] as the compound, how does the IC50 [1] read?
Answer: 76 nM

Question: Which IC50 [1] does the source give for `N#C[C@H](Cc1ccc2c(c1)COCC2)NC(=O)C1(N)CCOCC1` [Compound 52, (S)-4-Amino-N-(1-cyano-2-(isochroman-7-yl)ethyl)tetrahydro-2H-pyran-4-carboxamide trifluoroacetate] here?
Answer: 138 nM

Question: Which IC50 does the source give for `CS(=O)(=O)c1ccc2c(c1)-c1cc(F)c(CC(C#N)NC(=O)[C@@H]3CNCCCO3)cc1OC2` (stereo partly drawn) [Compound 43, (2S)—N-(1-Cyano-2-(2-fluoro-9-(methylsulfonyl)-6H-benzo[c]chromen-3-yl)ethyl)-1,4-oxazepane-2-carboxamide] here?
Answer: 26 nM

Question: `CN1CCc2cc(C[C@@H](C#N)NC(=O)C3(N)CCOCC3)ccc2C1` [Compound 51, (S)-4-Amino-N-(1-cyano-2-(2-methyl-1,2,3,4-tetrahydroisoquinolin-6-yl)ethyl)tetrahydro-2H-pyran-4-carboxamide] was tested. Which IC50 [1] did it give?
Answer: 39 nM

Question: `N#C[C@H](Cc1ccc2c(c1)CN(c1ccc(F)cc1)C2)NC(=O)C1(N)CCOCC1` [Compound 54, (S)-4-Amino-N-(1-cyano-2-(2-(4-fluorophenyl)isoindolin-5-yl)ethyl)tetrahydro-2H-pyran-4-carboxamide] was tested. Which IC50 [1] did it give?
Answer: 28 nM

Question: For `N#Cc1cnc2c(c1)COc1cc(CC(C#N)NC(=O)[C@@H]3CNCCCO3)c(F)cc1-2` (stereo partly drawn) [Compound 33, (2S)—N-(1-Cyano-2-(3-cyano-9-fluoro-5H-chromeno[4,3-b]pyridin-8-yl)ethyl)-1,4-oxazepane-2-carboxamide], which IC50 [1] is on record?
Answer: 85 nM

Question: `N#C[C@H](Cc1ccc2c(c1)CN(C(=O)c1ccc(F)cc1)C2)NC(=O)C1(N)CCOCC1` [Compound 55, (S)-4-Amino-N-(1-cyano-2-(2-(4-fluorobenzoyl)isoindolin-5-yl)ethyl)tetrahydro-2H-pyran-4-carboxamide] was tested. Which IC50 [1] did it give?
Answer: 174 nM

Question: Which IC50 [1] does the source give for `N#C[C@H](Cc1ccc2c(c1)CN(c1ccccc1)C2=O)NC(=O)C1(N)CCOCC1` [Compound 1, (S)-4-Amino-N-(1-cyano-2-(1-oxo-2-phenylisoindolin-5-yl)ethyl)tetrahydro-2H-pyran-4-carboxamide] here?
Answer: 42 nM

Question: `N#C[C@H](Cc1ccc2c(c1)CCN(C(=O)c1ccc(F)cc1)C2)NC(=O)C1(N)CCOCC1` [Compound 56, (S)-4-Amino-N-(1-cyano-2-(2-(4-fluorobenzoyl)-1,2,3,4-tetrahydroisoquinolin-6-yl)ethyl)tetrahydro-2H-pyran-4-carboxamide] was tested. Which IC50 [1] did it give?
Answer: 37 nM

Question: `N#CC(Cc1ccc2c(c1)CCCC2)NC(=O)C1(N)CCOCC1` (centres unmarked) [Compound 4, 4-Amino-N-(1-cyano-2-(5,6,7,8-tetrahydronaphthalen-2-yl)ethyl)tetrahydro-2H-pyran-4-carboxamide] was tested. Which IC50 [1] did it give?
Answer: 54 nM

Question: `N#C[C@H](Cc1ccc2c(c1)oc1cc(F)ccc12)NC(=O)C1(N)CCOCC1` [Compound 42, (S)-4-Amino-N-(1-cyano-2-(7-fluorodibenzo[b,d]furan-3-yl)ethyl)tetrahydro-2H-pyran-4-carboxamide] was tested. Which IC50 [1] did it give?
Answer: 5.7 nM

Question: How did the IC50 [1] turn out when `N#CC(Cc1ccc2c(c1)OCc1cc(F)ccc1-2)NC(=O)[C@@H]1CNCCCO1` (stereo partly drawn) [Compound 11, (2S)—N-(1-Cyano-2-(8-fluoro-6H-benzo[c]chromen-3-yl)ethyl)-1,4-oxazepane-2-carboxamide formate] was run?
Answer: 74 nM

Question: `N#Cc1cc2c(cn1)-c1cc(F)c(C[C@@H](C#N)NC(=O)[C@@H]3CNCCCO3)cc1OC2` [Compound 19, (S)—N—((S)-1-Cyano-2-(3-cyano-9-fluoro-5H-chromeno[4,3-c]pyridin-8-yl)ethyl)-1,4-oxazepane-2-carboxamide] was tested. Which IC50 did it give?
Answer: 32 nM

Question: How did the IC50 [1] turn out when `CN1CCc2cc(C[C@@H](C#N)NC(=O)[C@@H]3CNCCCO3)ccc2C1` [Compound 9, (S)—N—((S)-1-Cyano-2-(2-methyl-1,2,3,4-tetrahydroisoquinolin-6-yl)ethyl)-1,4-oxazepane-2-carboxamide] was run?
Answer: 1740 nM

Question: Which IC50 [1] does the source give for `N#Cc1cccc(N2Cc3cc(C[C@@H](C#N)NC(=O)C4(N)CCOCC4)ccc3C2=O)c1` [Compound 47, (S)-4-Amino-N-(1-cyano-2-(2-(3-cyanophenyl)-1-oxoisoindolin-5-yl)ethyl)tetrahydro-2H-pyran-4-carboxamide formate] here?
Answer: 29 nM

Question: With `N#C[C@H](Cc1ccc2c(c1)OCCC2)NC(=O)C1(N)CCOCC1` [Compound 10, (S)-4-Amino-N-(2-(chroman-7-yl)-1-cyanoethyl)tetrahydro-2H-pyran-4-carboxamide] as the compound, how does the IC50 [1] read?
Answer: 74 nM

Question: Which IC50 [1] does the source give for `N#Cc1ccc(C(=O)N2Cc3ccc(C[C@@H](C#N)NC(=O)C4(N)CCOCC4)cc3C2)cc1` [Compound 46, (S)-4-Amino-N-(1-cyano-2-(2-(4-cyanobenzoyl)isoindolin-5-yl)ethyl)tetrahydro-2H-pyran-4-carboxamide] here?
Answer: 54 nM

Question: How did the IC50 [1] turn out when `N#CC(Cc1ccc2c(c1)CCCC2)NC(=O)[C@@H]1CNCCCO1` (stereo partly drawn) [Compound 3, (2S)—N-(1-Cyano-2-(5,6,7,8-tetrahydronaphthalen-2-yl)ethyl)-1,4-oxazepane-2-carboxamide trifluoroacetate] was run?
Answer: 4250 nM
